Key:
Assay type in all cases: cell-based, human
[1] = test system: A498; test: XTT cell viability assay, A498 RCC cells; conditions: Homo sapiens, A498; XTT assay, 48 h; SD 10%; mean of three experiments; read-out: IC50 498 (Kidney RCC)
Procedure: (§1) Fifty microliters of sodium 3′-[1-phenylaminocarbonyl)-3,4-tetrazolium]-bis(4-methoxy-6-nitro) benzene sulfonic acid hydrate (XTT) reagent was added to each well. The assay is based on the cleavage of the yellow tetrazolium salt XTT to form an orange formazan dye by metabolically active cells. This bio-reduction occurs in viable cells only and is related to NAD(P)H production through glycolysis. Therefore, the amount of formazan dye measured at 490 nm directly correlated with the number of metabolically active cells reflecting cell proliferation and viability. Each assay was performed in quadruplicate.

[2] = test system: SKM1; test: XTT cell viability assay, SKM1 MDS cells; conditions: Homo sapiens, SKM-1, 48 h, SD 10%, mean of three experiments, read-out: IC50 SK (MDS)
Procedure: as §1

[3] = test system: MDA-MD-231; test: XTT cell viability assay, breast cancer cells; conditions: Homo sapiens, 48 h, SD 10%, mean of three experiments
Procedure: as §1

[4] = test system: Molm14; test: XTT cell viability assay, Molm14 AML cells; conditions: Homo sapiens, MOLM-14, 48 h, SD 10%, mean of three experiments
Procedure: as §1

[5] = test system: RCC4; test: XTT cell viability assay, RCC4 RCC cells; conditions: Homo sapiens, RCC4, 48 h, SD 10%, mean of three experiments, read-out: IC50 R4 (Kidney RCC)
Procedure: as §1

[6] = test system: Molm13; test: XTT cell viability assay, Molm13 AML cells; conditions: Homo sapiens, MOLM-13, 48 h, SD 10%, mean of three experiments
Procedure: as §1

[7] = test system: CAL33; test: XTT cell viability assay, CAL33 HNSCC cells; conditions: Homo sapiens, CAL-33; XTT assay, 48 h; SD 10%; mean of three experiments; read-out: IC50 33 (HNSCC)
Procedure: as §1

[8] = test system: OCI-AML3; test: XTT cell viability assay, OCI-AML3 AML cells; conditions: Homo sapiens, OCI-AML-3, 48 h, SD 10%, mean of three experiments, read-out: IC50 L3 (AML)
Procedure: as §1

[9] = test system: CAL27; test: XTT cell viability assay, CAL27 HNSCC cells; conditions: Homo sapiens, CAL-27; XTT assay, 48 h; SD 10%; mean of three experiments; read-out: IC50 27 (HNSCC)
Procedure: as §1

[10] = test system: 786-O; test: XTT cell viability assay, 786-O RCC cells; conditions: Homo sapiens, 786-0; XTT assay, 48 h; SD 10%; mean of three experiments; read-out: IC50 786 (Kidney RCC)
Procedure: as §1

[11] = test system: K562; test: XTT cell viability assay, K562 CML cells; conditions: Homo sapiens, K562, 48 h, SD 10%, mean of three experiments
Procedure: as §1

[12] = test system: OCI-AML2; test: XTT cell viability assay, OCI-AML2 AML cells; conditions: Homo sapiens, OCI-AML2, 48 h, SD 10%, mean of three experiments, read-out: IC50 L2 (AML)
Procedure: as §1

SMILES	IC50 [1] [µM]	IC50 [2] [µM]	IC50 [3] [µM]	IC50 [4] [µM]	IC50 [5] [µM]	IC50 [6] [µM]	IC50 [7] [µM]	IC50 [8] [µM]	IC50 [9] [µM]	IC50 [10] [µM]	IC50 [11] [µM]	IC50 [12] [µM]
Cc1ccc(NC(=O)Nc2ccccc2Cl)cc1 [C1]	> 25	> 25	> 25	> 25	> 25	> 25	> 25	> 25	> 25	> 25	> 25	> 25
Cc1ccc(NC(=O)Nc2cccc(Cl)c2)cc1 [C2]	> 25	> 25	> 25	> 25	> 25	> 25	> 25	> 25	> 25	> 25	> 25	> 25
Cc1ccc(NC(=O)Nc2ccc(Cl)cc2)cc1 [C3]	> 25	> 25	> 25	> 25	> 25	> 25	> 25	> 25	> 25	> 25	> 25	> 25
O=C(Nc1ccccc1Cl)Nc1ccc(Cl)cc1Cl [C4]	> 25	> 25	> 25	> 25	> 25	> 25	> 25	> 25	> 25	> 25	> 25	> 25
O=C(Nc1cccc(Cl)c1)Nc1ccc(Cl)cc1Cl [C5]	22	22	> 25	25	20	20	25	20	15	22	20	22
O=C(Nc1ccc(Cl)cc1)Nc1ccc(Cl)cc1Cl [C6]	22	> 25	> 25	> 25	> 25	22	> 25	22	25	> 25	15	25
Cc1ccc(NC(=S)Nc2ccccc2)cc1 [C7]	> 25	> 25	> 25	> 25	> 25	> 25	> 25	> 25	> 25	> 25	> 25	> 25
S=C(Nc1ccccc1)Nc1ccc(Cl)cc1Cl [C8]	> 25	> 25	> 25	> 25	> 25	> 25	> 25	> 25	> 25	> 25	> 25	> 25
O=C(Nc1ccc(Cl)cc1)Nc1ccc(Cl)cc1 [C10]	> 25	> 25	> 25	> 25	> 25	> 25	> 25	> 25	> 25	> 25	> 25	> 25
O=C(Nc1cccc(Cl)c1)Nc1ccccc1O [C11]	> 25	> 25	> 25	> 25	> 25	> 25	> 25	> 25	> 25	> 25	> 25	> 25
O=C(Nc1ccccc1)Nc1nc2ccccc2[nH]1 [C13]	10	25	12	20	25	25	10	25	10	20	10	18
O=C(Nc1nc2ccccc2[nH]1)Nc1ccccc1Cl [C14]	> 25	> 25	> 25	> 25	> 25	> 25	> 25	> 25	> 25	> 25	> 25	> 25
O=C(Nc1cccc(Cl)c1)Nc1nc2ccccc2[nH]1 [C15]	> 25	> 25	> 25	> 25	> 25	> 25	> 25	> 25	> 25	> 25	> 25	> 25
COc1ccc(NC(=O)Nc2nc3ccccc3[nH]2)cc1 [C17]	> 25	> 25	> 25	> 25	> 25	> 25	> 25	> 25	> 25	> 25	> 25	> 25
O=C(Nc1ccccc1)Nc1nc2ccccc2s1 [C20]	> 25	> 25	> 25	> 25	> 25	> 25	> 25	> 25	> 25	> 25	> 25	> 25
O=C(Nc1nc2ccccc2s1)Nc1ccccc1Cl [C21]	> 25	> 25	> 25	> 25	25	> 25	> 25	> 25	> 25	> 25	> 25	10
O=C(Nc1cccc(Cl)c1)Nc1nc2ccccc2s1 [C22]	> 25	> 25	> 25	> 25	20	> 25	> 25	> 25	> 25	> 25	25	> 25
O=C(Nc1ccc(Cl)cc1)Nc1nc2ccccc2s1 [C23]	25	> 25	> 25	> 25	20	> 25	> 25	> 25	> 25	> 25	25	> 25
COc1ccc(NC(=O)Nc2nc3ccccc3s2)cc1 [C24]	> 25	> 25	> 25	> 25	15	> 25	> 25	> 25	> 25	> 25	25	> 25
Cc1ccc2nc(NC(=O)Nc3cccc(Cl)c3)sc2c1 [C26]	> 25	> 25	> 25	> 25	> 25	> 25	> 25	> 25	> 25	> 25	> 25	> 25
Cc1cccc(NC(=O)Nc2nc3ccc(C)cc3s2)c1 [C27]	> 25	> 25	> 25	> 25	> 25	> 25	> 25	> 25	> 25	> 25	> 25	> 25
CCOc1ccc2nc(NC(=O)Nc3cccc(C)c3)sc2c1 [C31]	> 25	> 25	> 25	25	> 25	> 25	> 25	> 25	> 25	> 25	25	25
CCOc1ccc2nc(NC(=O)Nc3ccc(C)cc3)sc2c1 [C32]	> 25	> 25	> 25	> 25	> 25	> 25	> 25	> 25	> 25	> 25	> 25	> 25

Source: paper PMC6691587, “New CXCR1/CXCR2 inhibitors represent an effective treatment for kidney or head and neck cancers sensitive or refractory to reference treatments” (Theranostics, 2019)
